From US20060019565A1, “Method for delivering biologically active substnces” (priority 2002, published 2006)

What was measured:
[1] = Release of the hydroxyl compound by hydrolysis from a treated substrate (PAN fabric, cotton, paper); format: physicochemical; conditions: for release of the active hydroxyl compound upon hydrolysis: concentrated aqueous formulation sprayed on cellulosic substrate (paper, cotton), air-dried
Procedure: After the treatment with the aqueous solution of the ester compound a slow release of the biologically active hydroxyl compound on the substrate starts through hydrolysis. The velocity of this process can easily be controlled through pH and/or temperature variations.
II.1 A sample of 15 g polyacrylonitrile (PAN) fabric (Dralon 5-4301), pretreated with a commercial wetting agent (TINOVETIN® JU, supplied by Ciba Specialty Chemicals) at 60° C. during 10 min and rinsed with cold water, is fixed on a support material and in an exhaust dyeing machine of type Ahiba treated with the following composition: • 7.5 ml aqueous Na2SO4 solution (100 g/l) • 2.25 ml aqueous sodium acetate solution (100 g/A) • 2.25 ml 80% acetic acid • 233.5 ml water • 3.0 ml cationic retarder (TINEGAL® MR, Ciba Specialty Chemicals) (100 g/l) • 1.5 ml aqueous solution of compound of formula (101) (100 g/l)
The temperature is kept at 98° C. for 20 min; the pH of the bath after cooling to room temperature is 4.7. The sample of PAN fabric is rinsed with cold water and subsequently dried in the air. The resulting PAN fabric contains the latent menthol.
(§1) II.5 A padding bath is prepared containing 20 g/l of compound (101) and is applied at 20-25° C. with a pick-up rate of 70-80% on cotton. After drying (65 to 15 s at 70-130° C.), the resulting fabric contains the latent menthol.
II.8 A concentrated aqueous formulation of compound (101) is sprayed on a cellulosic substrate (e.g. paper, cotton).

[2] = Antimicrobial protection of treated cotton fibre
Procedure: as §1
II.6 The same treatment is made on cotton using compound (102) in place of (101).
II.7 A cotton fabric is similarly treated with an aqueous formulation of compounds of formula (101) and (102).

[3] = cotton treated with aqueous formulation of (101) and (102) together
[4] = cotton, padding bath 20 g/l, 20-25° C., pick-up 70-80%

Row | SMILES | regeneration of menthol from treated fabric ([1]; PAN fabric, exhaust treatment 98° C. for 20 min, bath pH 4.7-5.2, velocity of release controlled by pH) | release of the active hydroxyl compound upon hydrolysis [1] | release of the active hydroxyl compound from treated fabric [1, 3] | release of the active hydroxyl compound from treated fabric [1, 4] | antimicrobial protection ([2]; cotton padded with compound (102) alone) | antimicrobial protection [2, 3]
1 | CC1CCC(C(C)C)C(OC(=O)C[N+](C)(C)CCN(C)C)C1.[Cl-] (stereo not drawn) [compound 101] | gradually regenerated | releases menthol upon hydrolysis | slowly released | gradually regenerated | – | –
2 | CN(C)CC[N+](C)(C)CC(=O)Oc1cc(Cl)ccc1Oc1ccc(Cl)cc1Cl.[Cl-] [compound 102] | – | releases triclosan upon hydrolysis | slowly released | slowly released | good antimicrobial protection over time | good antimicrobial protection over time
